Data from ChEMBL document CHEMBL4261609, “Chemistry-driven glycoscience” (Bioorg Med Chem, 2018).

Columns and labels:
[1] = target: T1, L-selectin (Homo sapiens) (UniProt P14151); experiment: Inhibition of human L-selectin transfected in mouse 300.19 cells assessed as decrease in protein-mediated cell rolling on GlyCAM-1 or PNAd preincubated for 5 mins followed by cell perfusion through laminar flow chamber coated with GlyCAM-1 or PNAd relative to control; format: cell-based
T1 sequence (whole entry): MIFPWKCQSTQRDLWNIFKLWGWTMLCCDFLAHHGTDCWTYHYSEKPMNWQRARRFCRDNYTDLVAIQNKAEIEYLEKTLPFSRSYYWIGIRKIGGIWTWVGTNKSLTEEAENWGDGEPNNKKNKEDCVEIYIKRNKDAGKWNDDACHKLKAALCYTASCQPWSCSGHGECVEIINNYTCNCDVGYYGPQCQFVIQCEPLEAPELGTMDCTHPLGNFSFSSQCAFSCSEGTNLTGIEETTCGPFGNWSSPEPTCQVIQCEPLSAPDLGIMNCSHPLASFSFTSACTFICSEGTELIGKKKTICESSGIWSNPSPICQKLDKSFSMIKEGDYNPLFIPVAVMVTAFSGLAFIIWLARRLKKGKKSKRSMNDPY

CD209 antigen = target: T2, CD209 antigen (Homo sapiens, UniProt Q9NNX6); experiment: Inhibition of DC-SIGN (unknown origin)
T2 sequence (Q9NNX6 whole entry): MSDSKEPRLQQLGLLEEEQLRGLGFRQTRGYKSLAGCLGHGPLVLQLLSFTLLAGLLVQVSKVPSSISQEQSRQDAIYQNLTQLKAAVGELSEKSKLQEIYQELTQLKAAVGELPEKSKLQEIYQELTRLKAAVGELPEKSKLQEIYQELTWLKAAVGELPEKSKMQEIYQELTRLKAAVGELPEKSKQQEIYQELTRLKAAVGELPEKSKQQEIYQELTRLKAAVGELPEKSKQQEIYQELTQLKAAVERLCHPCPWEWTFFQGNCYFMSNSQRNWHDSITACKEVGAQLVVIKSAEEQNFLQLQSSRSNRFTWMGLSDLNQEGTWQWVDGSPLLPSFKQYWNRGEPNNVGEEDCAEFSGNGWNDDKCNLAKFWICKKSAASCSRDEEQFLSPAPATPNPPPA

fold change (FC) [1] | SMILES | further results
3 | CCCO[C@@H]1O[C@H](COS(=O)(=O)O)[C@@H](O[C@@H]2O[C@H](CO)[C@H](O)[C@H](O[C@]3(C(=O)O)C[C@H](O)[C@@H](NC(C)=O)[C@H]([C@H](O)[C@H](O)CO)O3)[C@H]2O)[C@H](O[C@@H]2O[C@@H](C)[C@@H](O)[C@@H](O)[C@@H]2O)[C@@H]1O | 
 | CC(=O)N[C@@H]1C(O)O[C@H](CO)[C@@H](O)[C@@H]1O (some centres undefined) | Ki (CD209 antigen): 11 mM
 | NC(=O)[C@@H](CCC(=O)O)NC(=O)[C@H]1C[C@@H](O)[C@H](O)[C@H](O)[C@H]1SCCCCSCc1cccc(F)c1 | IC50 (CD209 antigen): 3.2 mM
1 | CCCO[C@@H]1O[C@H](CO)[C@@H](O[C@@H]2O[C@H](CO)[C@H](O)[C@H](O[C@]3(C(=O)O)C[C@H](O)[C@@H](NC(C)=O)[C@H]([C@H](O)[C@H](O)CO)O3)[C@H]2O)[C@H](O[C@@H]2O[C@@H](C)[C@@H](O)[C@@H](O)[C@@H]2O)[C@@H]1O | 
